Entries after “also recorded” stand apart in the source; their conditions may differ.
Key:
[1] = test system: senile plaques and diffuse plaques (amyloid β-protein) in brain sections; test: Staining of senile plaques and diffuse plaques in brain sections of an Alzheimer's disease patient; set-up: species or system human; details: for staining properties in sections of the brain of a patient with Alzheimer's disease (senile plaques): 100 μM compound in 50% ethanol, compared with thioflavin S or anti-Aβ antibody 6F/3D on adjacent section; for staining of diffuse plaques in sections of the brain of a patient with Alzheimer's disease: 100 μM compound, diffuse plaques stained with anti-Aβ antibody 6F/3D on adjacent section
From the text: (§1) The following explanation is made about testing of staining properties of the compounds of the present invention on brain sections of an Alzheimer's disease patient.
(§2) (1) Temporal lobe or hippocampus specimens of the brain of a patient who had been definitely diagnosed pathologically as Alzheimer's disease and of a normal aged individual were used. These specimens were provided from Fukushimura Hospital, our joint research facility, with the consent to their use for research purpose received from the bereaved family of the patient (BF Research Laboratories Institutional Ethics Board Permission No. RS-99-02).
(§3) (2) The brain tissues embedded in paraffin were sliced 6 or 8 μm thick, extended on slides, and dried. The paraffin-embedded brain sections were deparaffined by washing sequentially with xylene (10 minutes, twice), 100% ethanol (15 minutes, twice), 95% ethanol (15 minutes, twice), and a stream of water (10 minutes).
(§4) (3) Pre-treatment for staining with compounds of the present invention involved treating the sections for eliminating self-fluorescence due to lipofuscin. First, the deparaffined sections were immersed into a 10% formalin solution for 60 minutes and washed with PBS for 5 minutes, followed by immersion into a 0.25% solution of KMnO4 for 90 minutes. After washing twice with PBS for 2 minutes each, the sections were immersed into a solution of 0.1% K2S2O5/oxalic acid for about 30 seconds each, and then washed three times with PBS for 2 minutes each.
(§5) (4) About 150 μl of a 100 μM solution of a compound of the present invention dissolved in 50% ethanol was added dropwise onto the sections and allowed the reaction to be carried out for 10 minutes. The sections were dipped into tap water five times, and then 50% ethanol three to five times, followed by immediate classification. After that, the sections were immersed into PBS for 60 minutes, enclosed with Fluor Save Reagent (Calbiochem), and examined under a fluorescent microscope (Nikon, Eclips E800) . Pictures were taken using a digital camera (Plaroid PDMCII).
Immunostaining was carried out as follows.
(a) Procedures for Immunostaining Amyloid β-Protein:
(1) After the sections were deparaffined, the sections were washed twice in distilled water for 2 minutes each, and tissues were marked with an Immunopen. About 150 μl of formic acid was added dropwise and allowed to stand at room temperature for 5 minutes. The sections were washed with tap water for 5 minutes and immersed into cold PBS-Tween 20 for 2 minutes, and then about 150 μl of a 0.05% trypsin solution was added dropwise and allowed the reaction to be carried out at 37° C. for 15 minutes.
(2) In an ice bath, the sections were washed twice with cold PBS-Tween 20 for 5 minutes each, and two drops of blocking serum were added and allowed the reaction to be carried out at 37° C. for 15 minutes. Excess water was removed, and about 150 μl of 6F/3D, an antibody specific to amyloid β-protein (DAKO; diluted 1:50) was added dropwise and allowed the reaction to be carried out at 37° C. for 1 hour.
(3) Further, after washing five times with cold PBS-Tween 20 for 2 minutes each, two drops of a solution of goat anti-mouse IgG (H+L) conjugated to biotin were added and allowed the reaction to be carried out at 37° C. for 1 hour. After that, the sections were washed three times with cold PBS-Tween 20 for 2 minutes each, and two drops of ABS solution (a streptavidin-biotin-peroxidase complex solution) were added and allowed to stand for 30 minutes. The sections were again washed three times with cold PBS-Tween 20 for 2 minutes each, and about 150 μl of DAB solution (prepared by dissolving 10 mg of DAB in 20 ml of 0.05 mol/l Tris-HCl buffer and adding 100 μl of 3% hydrogen peroxide immediately before use) were added and allowed the color to be developed sufficiently. Then, the sections were washed with distilled water for 1 minute to stop the reaction, enclosed, and examined under a microscope.

[2] = Acute toxicity testing by intravenous administration; assay type: in vivo; details: male Crj:CD1 mice, observed up to 7 days
Description: (A) Testing of Acute Toxicity
Acute toxicity of the inventive compounds was determined employing mice by intravenous administration. Male Crj:CD1 mice were used and divided into groups of 4 mice, with an average weight of each group of 31-32 g. […] Up to 7 days after administration, observations were made.

[3] = Blood-brain barrier permeability after intravenous administration; assay type: in vivo; details: Slc:ICR, mouse, not told; mice, two minutes after intravenous administration; read-out: content in Brain (blood-brain barrier permeability)
From the text: (B) Testing of Blood-Brain Barrier Permeability

[4] = test system: neurofibrillary tangles (tau protein) in brain sections; test: Neurofibrillary tangles staining in brain sections of an Alzheimer's disease patient; set-up: species or system human; details: for specificity of staining to tau protein / neurofibrillary tangles: compared with thioflavin S (FIG. 17)
From the text: as §1, §2, §3, §4, §5
(b) Procedures for Immunostaining Neurofibrillary Tangles:
(1) Immunostaining of neurofibrillary tangles was carried out as follows. After the sections were deparaffined, the sections were washed twice with distilled water for 2 minutes each, tissues were marked with an Immunopen. About 150 μl of 3% hydrogen peroxide (diluted in methanol) was added dropwise and allowed to stand at room temperature for 10 minutes.
(2) The sections were washed twice with cold PBS-Tween 20 for 5 minutes each, and two drops of blocking serum were added and allowed the reaction to be carried out at 37° C. for 30 minutes. Excess water was removed, and two drops of pSer422, an antibody specific to phosphorylated tau (Wako Phosphorylated Tau Immunohistostain Kit 299-57301) and allowed the reaction to be carried out overnight at 4° C.
(3) On the next day, the sections were washed five times with cold PBS-Tween 20 for 2 minutes each, and two drops of a solution of goat anti-rabbit IgG conjugated to biotin were added and allowed the reaction to be carried out at 37° C. for 1 hour. After that, the sections were washed three times with cold PBS-Tween 20 for 2 minutes each, and two drops of ABS solution (a streptavidin-biotin-peroxidase complex solution) were added and allowed to stand for 30 minutes.
(4) The sections were again washed three times with cold PBS-Tween 20 for 2 minutes each, and about 150 μl of DAB solution (prepared by dissolving 10 mg of DAB in 20 ml of 0.05 mol/l Tris-HCl buffer and adding 100 μl of 3% hydrogen peroxide immediately before use) were added and allowed the color to be developed sufficiently. Then, the sections were washed with distilled water for 1 minute to stop the reaction, enclosed, and examined under a microscope. The blocking serum, the solution of goat anti-rabbit IgG conjugated to biotin, and the ABC solution used were those contained in a Phosphorylated Tau Immunohistostain Kit (Wako 299-57301).

[5] = Clearance from the brain; details: in vivo

Compound	staining properties in sections of the brain of a patient with Alzheimer's disease (senile plaques) [1]	specificity of staining to tau protein / neurofibrillary tangles [4]	also measured
CNc1ccc(/C=C/C=C/c2nc3ccccc3o2)cc1 [BF-185, 2-[[4-(4-methylamino)phenyl]-1,3-butadienyl)benzoxazole]	mainly stains senile plaques		staining of diffuse plaques in sections of the brain of a patient with Alzheimer's disease [1]: stains; also recorded: display affinity also for diffuse plaques and provide their clear staining; Maximum Tolerated Dose [2]: ≧10 mg/kg; tissue uptake at 2 min [3]: 3.9 %ID/g
CNc1ccc(/C=C/C=C/c2nc3ccccc3s2)cc1 [BF-187, 2-[[4-(4-methylamino)phenyl]-1,3-butadienyl)benzothiazole]	stains senile plaques		Maximum Tolerated Dose [2]: ≧10 mg/kg; tissue uptake at 2 min [3]: 3.6 %ID/g
CNc1ccc(/C=C/C=C/c2nc3ccccc3[nH]2)cc1 [BF-188, 2-[[4-(4-methylamino)phenyl]1,3-butadienyl]benzoimidazole]	stains senile plaques		tissue uptake at 2 min [3]: 4.8 %ID/g
CNc1ccc(/C=C/C=C/C=C/c2ccc3ccccc3n2)cc1 [BF-189, 1-(4-methylaminophenyl)-6-(2-quinolyl)-1,3,5-hexatrien]	stains senile plaques		
CN(C)c1ncc(/C=C/c2nc3ccccc3s2)s1 [BF-196, 2-[2-(2-dimethylaminothiazol-5-yl)ethenyl]benzothiazole]	mainly stains senile plaques		
CN(C)c1ncc(/C=C/c2nc3ccccc3o2)s1 [BF-197, 2-[2-(2-dimethylaminothiazol-5-yl)ethenyl]benzoxazole]	mainly stains senile plaques		
Nc1ccc(/C=C/C=C/c2nc3ccc(O)cc3o2)c(O)c1 [BF-201]	stains senile plaques		MTD at 7 days ([2]; mouse, in vivo, read-out: Maximum Tolerated Dose): ≥ 10 mg/kg
Cc1nc(/C=C/c2cnc(N(C)C)s2)oc1C [BF-214, 2-(dimethylamino)-5-[2-(4,5-dimethyloxazol-2-yl)ethenyl]thiazole]	stains senile plaques		
CN(C)c1ncc(-c2ccc3ccccc3n2)o1 [BF-221, 2-(2-dimethylaminooxazol-5-yl)quinoline]		high specificity to tau protein	staining of phosphorylated tau protein recognized by antibody pSer422 ([4]; adjacent section immunostained with pSer422 (FIG. 18)): stained phosphorylated tau protein
CN(C)c1ncc(-c2nc3ccccc3o2)s1 [BF-225, 2-(2-dimethylaminothiazol-5-yl)benzoxazole]			Maximum Tolerated Dose [2]: ≧10 mg/kg
CN(C)c1ncc(/C=C/c2nc3ccc(OCCF)cc3o2)s1 [BF-227, 2-[2-(2-dimethylaminothiazol-5-yl)ethenyl]-6-(2-fluoroethyloxy)benzoxazole]	mainly stains senile plaques		staining of diffuse plaques in sections of the brain of a patient with Alzheimer's disease [1]: stains; also recorded: display affinity also for diffuse plaques and provide their clear staining; clearance from the brain [5]: rapid clearance from the brain
Nc1ncc(-c2ccc3ccccc3n2)o1 [BF-239, 2-(2-aminooxazol-5-yl)quinoline]		high selectivity to neurofibrillary tangles	
Nc1ncc(-c2ccc3ccccc3n2)s1 [BF-240, 2-(2-aminothiazol-5-yl)quinoline]		high selectivity to neurofibrillary tangles	
Nc1cnc(-c2ccc3ccccc3n2)o1 [BF-255]		high selectivity to neurofibrillary tangles	
O=C(O)c1cc(/C=C/c2ccc(/C=C/c3ccc(O)c(C(=O)O)c3)c(Br)c2)ccc1O [BSB, reference compound]	stains both senile plaques and neurofibrillary tangles		
thioflavin S [reference compound]	stains both senile plaques and neurofibrillary tangles	provided enough staining of proteins other than tau protein	

Reference: patent US20060018825A1, “Probe for diseases with amyloid accumulation, amyloid-staining agent, remedy and preventive for diseases with amyloid accumulation and diagnostic probe and staining agent for neurofibrillary change” (BF RESEARCH INSTITUTE, INC., priority 2003, published 2006)
